From ChEMBL document CHEMBL1157613, “Salicylic acid based small molecule inhibitor for the oncogenic Src homology-2 domain containing protein tyrosine phosphatase-2 (SHP2)” (J Med Chem, 2010)
Active and inactive are the calls of the source. The rule behind the calls is not given here.

Columns and labels:
[1] = target: T1, Tyrosine-protein phosphatase non-receptor type 7 (Homo sapiens, UniProt P35236); test: Inhibition of HePTP expressed in Escherichia coli assessed as inhibition of p-nitrophenyl phosphate hydrolysis at pH 7 by spectrophotometry
T1 sequence (P35236 whole entry): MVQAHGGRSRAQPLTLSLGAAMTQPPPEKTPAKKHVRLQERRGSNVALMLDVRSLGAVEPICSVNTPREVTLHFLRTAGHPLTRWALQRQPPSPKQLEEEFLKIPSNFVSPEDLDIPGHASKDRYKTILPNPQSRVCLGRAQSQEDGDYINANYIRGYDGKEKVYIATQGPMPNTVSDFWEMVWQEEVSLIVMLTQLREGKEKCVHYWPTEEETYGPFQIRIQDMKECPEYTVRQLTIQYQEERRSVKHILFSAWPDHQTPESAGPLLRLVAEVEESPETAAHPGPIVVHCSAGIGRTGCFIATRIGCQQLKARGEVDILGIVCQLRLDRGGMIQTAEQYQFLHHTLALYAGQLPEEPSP

[2] = target: T2, Tyrosine-protein phosphatase non-receptor type 22 (Homo sapiens, UniProt Q9Y2R2); test: Inhibition of Lyp expressed in Escherichia coli assessed as inhibition of p-nitrophenyl phosphate hydrolysis at pH 7 by spectrophotometry
T2 sequence (Q9Y2R2 whole entry): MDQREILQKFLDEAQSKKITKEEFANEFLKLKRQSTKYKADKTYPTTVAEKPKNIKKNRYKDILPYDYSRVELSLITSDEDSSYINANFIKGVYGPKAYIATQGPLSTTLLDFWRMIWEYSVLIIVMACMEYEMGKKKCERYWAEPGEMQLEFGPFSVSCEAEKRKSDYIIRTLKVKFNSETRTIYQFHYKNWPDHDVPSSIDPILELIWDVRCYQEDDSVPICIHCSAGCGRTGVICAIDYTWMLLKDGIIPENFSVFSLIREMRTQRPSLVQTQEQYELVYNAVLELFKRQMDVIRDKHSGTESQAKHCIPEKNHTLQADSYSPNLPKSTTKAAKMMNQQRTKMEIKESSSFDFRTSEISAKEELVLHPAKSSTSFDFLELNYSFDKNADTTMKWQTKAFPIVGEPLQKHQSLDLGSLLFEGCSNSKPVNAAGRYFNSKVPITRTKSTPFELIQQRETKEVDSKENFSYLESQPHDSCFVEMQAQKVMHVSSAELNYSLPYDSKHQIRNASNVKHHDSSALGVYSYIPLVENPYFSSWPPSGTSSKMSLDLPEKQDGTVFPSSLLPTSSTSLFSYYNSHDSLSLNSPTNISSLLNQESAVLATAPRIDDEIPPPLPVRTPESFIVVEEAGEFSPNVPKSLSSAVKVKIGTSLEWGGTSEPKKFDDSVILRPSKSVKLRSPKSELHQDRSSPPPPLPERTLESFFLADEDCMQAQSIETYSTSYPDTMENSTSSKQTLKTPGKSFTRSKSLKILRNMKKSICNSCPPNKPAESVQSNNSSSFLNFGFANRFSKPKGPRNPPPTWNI

[3] = target: T3, Tyrosine-protein phosphatase non-receptor type 11 (Mus musculus) (UniProt P35235); test: Inhibition of SHP2-dependent ERK1/2 activation in EGF-stimulated mouse NIH/3T3 cells assessed as phosphorylated ERK1/2 level at 10 uM treated for 3 hrs before EGF challenge measured after 60 mins of EGF stimulation by immunoblot analysis; type: cell-based; settings: NIH3T3
T3 sequence (whole entry): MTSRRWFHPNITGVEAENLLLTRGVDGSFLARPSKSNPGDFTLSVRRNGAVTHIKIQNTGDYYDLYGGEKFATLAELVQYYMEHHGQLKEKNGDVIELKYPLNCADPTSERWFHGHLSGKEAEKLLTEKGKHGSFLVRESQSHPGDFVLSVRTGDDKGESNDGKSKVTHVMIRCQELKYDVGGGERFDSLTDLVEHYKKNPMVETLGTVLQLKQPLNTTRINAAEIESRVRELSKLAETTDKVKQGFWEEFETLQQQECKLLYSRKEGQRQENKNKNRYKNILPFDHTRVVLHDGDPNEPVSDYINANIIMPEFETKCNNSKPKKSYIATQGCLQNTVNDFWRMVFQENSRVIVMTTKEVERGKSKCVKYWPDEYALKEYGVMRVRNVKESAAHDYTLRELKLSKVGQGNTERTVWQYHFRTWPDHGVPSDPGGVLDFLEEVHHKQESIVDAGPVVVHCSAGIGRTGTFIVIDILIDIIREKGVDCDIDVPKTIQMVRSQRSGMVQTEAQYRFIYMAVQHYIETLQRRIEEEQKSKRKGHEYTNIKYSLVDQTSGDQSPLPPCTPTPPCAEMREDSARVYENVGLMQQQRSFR

- IC50 [1]: > 50 µM
- IC50 [2]: 25 µM
- inhibition [3]: Active
SMILES: Cn1c(-c2ccccc2)c(-c2cn(CCC(=O)Nc3ccc(-c4ccccc4)cc3)nn2)c2cc(C(=O)O)c(O)cc21
